The values below come from article PMC11313072, “Copper(II) and Zinc(II) Complexes with Bacterial Prodigiosin Are Targeting Site III of Bovine Serum Albumin and Acting as DNA Minor Groove Binders” (International Journal of Molecular Sciences, 2024).

The test has as its target T1, bovine serum albumin (BSA) (Bos taurus, UniProt P02769).
T1 construct: gene ALB; commercial native full-length BSA (Sigma-Aldrich), mature secreted protein
As to the kind of experiment: tryptophan fluorescence quenching. Format: binding. To be noted: PBS pH 7.4, BSA 5 μM, excitation 280 nm, no site marker, double-log. The text has this:
tryptophan fluorescence quenching on bovine serum albumin (BSA)

T1 sequence (P02769 25-607): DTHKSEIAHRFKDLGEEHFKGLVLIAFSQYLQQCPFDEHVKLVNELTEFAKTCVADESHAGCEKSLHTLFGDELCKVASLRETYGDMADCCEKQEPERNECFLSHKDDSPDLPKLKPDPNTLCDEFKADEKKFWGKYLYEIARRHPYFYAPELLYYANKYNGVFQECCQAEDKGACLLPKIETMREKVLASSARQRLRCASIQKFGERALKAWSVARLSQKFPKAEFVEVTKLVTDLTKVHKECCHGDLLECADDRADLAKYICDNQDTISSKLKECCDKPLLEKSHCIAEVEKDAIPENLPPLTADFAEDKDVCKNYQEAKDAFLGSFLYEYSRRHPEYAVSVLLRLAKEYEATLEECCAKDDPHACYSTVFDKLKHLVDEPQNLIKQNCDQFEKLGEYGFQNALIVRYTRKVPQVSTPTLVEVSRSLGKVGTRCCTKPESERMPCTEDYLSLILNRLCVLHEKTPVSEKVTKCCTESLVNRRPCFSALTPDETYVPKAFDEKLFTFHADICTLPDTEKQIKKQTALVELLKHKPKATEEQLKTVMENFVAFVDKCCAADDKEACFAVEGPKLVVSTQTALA

On to ZnPG, for which the “KA” value (n = 1.07) came to 7140 M⁻¹.

With CuPG, the “KA” value (n = 1.41) was determined as 805000 M⁻¹.

Take `CCCCCC1=C/C(=C/c2[nH]c(-c3ccc[nH]3)cc2OC)N=C1C` [PG, prodigiosin]: the “KA” value (n = 0.97) came to 5770 M⁻¹.
